Remaining binding data for three molecules are collected here from patent US11208412B2 (DAEGU-GYEONGBUK MEDICAL INNOVATION FOUNDATION, priority 2017, dated 2021).

Common to all, as to experiment: Kinase selectivity, DiscoverX scanMAX Kinase assay panel (% control)
Common to all, as to format: binding

The target in test [1] is T1, kinases of the scanMAX Kinase assay panel (Homo sapiens, UniProt P29322).
T1 construct: purchased DiscoverX Co. (contract measurement) scanMAX Kinase assay panel
T1 sequence (P29322 28-1005): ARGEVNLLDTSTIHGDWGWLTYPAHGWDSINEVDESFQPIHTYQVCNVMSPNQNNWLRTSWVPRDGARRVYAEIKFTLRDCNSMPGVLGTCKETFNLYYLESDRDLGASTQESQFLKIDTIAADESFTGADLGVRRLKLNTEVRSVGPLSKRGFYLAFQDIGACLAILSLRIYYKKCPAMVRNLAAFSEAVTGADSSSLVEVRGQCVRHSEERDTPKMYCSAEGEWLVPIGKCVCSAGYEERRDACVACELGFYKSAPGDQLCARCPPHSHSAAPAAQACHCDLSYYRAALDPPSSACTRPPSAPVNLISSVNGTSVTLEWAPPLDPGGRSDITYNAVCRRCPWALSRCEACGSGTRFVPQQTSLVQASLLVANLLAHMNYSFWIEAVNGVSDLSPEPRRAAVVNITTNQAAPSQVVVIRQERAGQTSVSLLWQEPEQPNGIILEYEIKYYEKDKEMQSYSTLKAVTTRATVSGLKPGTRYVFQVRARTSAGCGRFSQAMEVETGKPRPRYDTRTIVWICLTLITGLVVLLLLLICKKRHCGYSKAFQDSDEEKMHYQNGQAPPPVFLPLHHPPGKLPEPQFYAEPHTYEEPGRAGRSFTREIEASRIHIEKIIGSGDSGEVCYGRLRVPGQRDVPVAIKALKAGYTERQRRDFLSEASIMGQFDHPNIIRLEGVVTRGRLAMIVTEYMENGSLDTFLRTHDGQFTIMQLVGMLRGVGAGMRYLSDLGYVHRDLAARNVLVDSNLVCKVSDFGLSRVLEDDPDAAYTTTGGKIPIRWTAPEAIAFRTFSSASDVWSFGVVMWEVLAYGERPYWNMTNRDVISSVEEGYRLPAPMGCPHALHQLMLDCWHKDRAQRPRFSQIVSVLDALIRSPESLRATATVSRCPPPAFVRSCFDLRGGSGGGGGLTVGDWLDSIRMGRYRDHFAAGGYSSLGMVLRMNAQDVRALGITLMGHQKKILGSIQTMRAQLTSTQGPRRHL
Conditions: EPHA8; 1 uM. The gist of the method:
(§1)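 A 1 uM DMSO solution of compound was applied across the panel kinases, and results were expressed as % control relative to DMSO (100%) and a positive control (0%).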

Test [2] has as its target T2, kinases of the scanMAX Kinase assay panel (Homo sapiens, UniProt Q16832).
T2 construct: purchased DiscoverX Co. (contract measurement) scanMAX Kinase assay panel
T2 sequence (Q16832 22-855): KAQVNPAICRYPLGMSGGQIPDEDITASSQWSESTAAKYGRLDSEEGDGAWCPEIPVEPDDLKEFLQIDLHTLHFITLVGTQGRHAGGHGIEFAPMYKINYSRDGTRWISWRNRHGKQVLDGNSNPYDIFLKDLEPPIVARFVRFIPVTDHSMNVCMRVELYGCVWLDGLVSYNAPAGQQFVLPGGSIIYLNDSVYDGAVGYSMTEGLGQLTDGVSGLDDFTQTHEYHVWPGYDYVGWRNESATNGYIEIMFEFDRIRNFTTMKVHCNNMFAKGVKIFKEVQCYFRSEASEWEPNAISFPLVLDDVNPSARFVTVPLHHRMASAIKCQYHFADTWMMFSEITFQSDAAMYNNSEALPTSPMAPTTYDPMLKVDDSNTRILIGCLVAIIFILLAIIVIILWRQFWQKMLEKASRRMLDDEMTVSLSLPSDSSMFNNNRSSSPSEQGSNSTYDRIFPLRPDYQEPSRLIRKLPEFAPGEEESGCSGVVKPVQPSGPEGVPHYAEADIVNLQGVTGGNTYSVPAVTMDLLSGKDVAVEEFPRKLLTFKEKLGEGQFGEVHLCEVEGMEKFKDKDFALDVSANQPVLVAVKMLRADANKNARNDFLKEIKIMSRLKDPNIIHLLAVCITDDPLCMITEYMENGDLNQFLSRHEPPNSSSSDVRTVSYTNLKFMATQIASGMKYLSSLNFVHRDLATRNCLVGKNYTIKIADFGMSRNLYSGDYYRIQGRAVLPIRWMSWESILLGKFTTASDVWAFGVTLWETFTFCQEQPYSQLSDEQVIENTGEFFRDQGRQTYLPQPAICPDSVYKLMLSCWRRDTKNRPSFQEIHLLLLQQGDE
The note with it: DDR2; 1 uM. The gist of the method:
as §1

The target of test [3] is T3, kinases of the scanMAX Kinase assay panel (Homo sapiens, UniProt Q99759).
T3 construct: purchased DiscoverX Co. (contract measurement) scanMAX Kinase assay panel
T3 sequence (Q99759 1-626): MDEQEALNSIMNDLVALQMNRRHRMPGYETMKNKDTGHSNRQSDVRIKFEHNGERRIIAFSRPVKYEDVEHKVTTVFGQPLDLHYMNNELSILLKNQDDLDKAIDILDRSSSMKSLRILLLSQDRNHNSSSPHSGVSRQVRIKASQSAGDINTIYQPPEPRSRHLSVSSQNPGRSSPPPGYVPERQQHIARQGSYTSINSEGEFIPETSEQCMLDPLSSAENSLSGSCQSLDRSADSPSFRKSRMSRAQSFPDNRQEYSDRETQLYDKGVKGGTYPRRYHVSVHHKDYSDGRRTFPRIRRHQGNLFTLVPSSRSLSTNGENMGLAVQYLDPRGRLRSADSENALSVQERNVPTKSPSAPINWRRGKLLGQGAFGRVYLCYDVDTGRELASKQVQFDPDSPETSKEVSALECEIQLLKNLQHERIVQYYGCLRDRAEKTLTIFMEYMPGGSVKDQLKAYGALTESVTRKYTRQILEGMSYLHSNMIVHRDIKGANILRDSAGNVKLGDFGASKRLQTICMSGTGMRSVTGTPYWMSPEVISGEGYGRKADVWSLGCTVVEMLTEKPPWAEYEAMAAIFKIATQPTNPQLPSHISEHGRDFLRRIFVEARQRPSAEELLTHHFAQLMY
Conditions: MAP3K3; 1 uM. The gist of the method: as §1

As for `CC1(Nc2nc(Nc3cnn([C@H]4CCN(C5COC5)C[C@@H]4F)c3Cl)nc3[nH]cc(C#N)c23)CC1` [Example 52, 2-((5-chloro-1-((3S,4S)-3-fluoro-1-(oxetane-3-yl)piperidine-4-yl)-1H-pyrazole-4-yl)amino)((1-methylcyclopropyl)amino)-7H-pyrrolo[2,3-d]pyrimidine-5-carbonitrile], the remaining binding at 1 µM in test [1] stood at 86%; in test [2], 20%; in test [3] it was 0.1%.

Consider `CCNc1nc(Nc2ccc(C(=O)N3CCC(N4CCOCC4)CC3)cc2OC)nc2[nH]cc(C(F)(F)F)c12` [Example 104, (4-((4-(ethylamino)-5-(trifluoromethyl)-7H-pyrrolo[2,3-d]pyrimidine-2-yl)amino)-3-methoxyphenyl)(4-morpholinopiperidine-1-yl)methanone], for which the remaining binding at 1 µM stood at 93% in test [1], 100% in test [2] and 87% in test [3].

Regarding `CNc1nc(Nc2ccc(C(=O)N3CCOCC3)cc2OC)nc2[nH]cc(C#N)c12` [Example 1, 2-((2-methoxy-4-(morpholine-4-carbonyl)phenyl)amino)-4-(methylamino)-7H-pyrrolo[2,3-d]pyrimidine-5-carbonitrile], the remaining binding at 1 µM in test [1] is 97%; in test [2], 96%; in test [3], 98%.
